Among the test systems are OVCAR-5 ovarian; LOX IMVI melanoma; RXF 393 renal; EKVX NSCLC; HCC-2998 colon; A549 NSCLC; HOP-92 NSCLC; SF-295 CNS; 786-0 renal.
Holding throughout (assay): NCI anticancer screen, dose series, 48 h

Structures are written as SMILES. “And” between values parts separate entries of the source, which are not always exact repeats. Identical values can stand only once.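 Growth conditions: 96-well plates. Treatment: test compound, 48 hours, 5 concentrations. Analysis: linear interpolation between bracketing concentrations; unreached endpoints set to highest concentration. GI50 marks 50% less growth. TGI is the concentration that stops growth completely.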 Bounds are passed on as bounds.

As to `CCCCn1c2cc(OCc3cn(-c4ccc(Cl)cc4)nn3)ccc2c2ccnc(C)c21`, the GI50 is 6.55 µM with OVCAR-5 ovarian; 5.91 µM with LOX IMVI melanoma; 6.5 µM with RXF 393 renal; 6.93 µM with EKVX NSCLC; 9.58 µM with HCC-2998 colon; 8 µM in the assay on A549 NSCLC. The GI50 with HOP-92 NSCLC was 4.22 µM; in the assay with SF-295 CNS, 5.03 µM; with 786-0 renal, 5.76 µM. The TGI in the assay with OVCAR-5 ovarian was 21.5 µM; in the assay on LOX IMVI melanoma it was 12.3 µM; in the assay on RXF 393 renal it was 19.8 µM; in the assay with EKVX NSCLC, > 33.3 µM; in the assay with HCC-2998 colon, 30.4 µM; with A549 NSCLC, > 33.3 µM. Moreover, the TGI in the assay with HOP-92 NSCLC amounted to 16.3 µM; in the assay on SF-295 CNS, 17.8 µM; in the assay on 786-0 renal it was 11 µM.
As to `COC(=O)C(CCS(=O)(=O)CC(=O)C(=O)Nc1cccc(C(C)=O)c1)C(=O)OC`, the TGI in the assay on OVCAR-5 ovarian, in the assay with LOX IMVI melanoma, with RXF 393 renal, in the assay on EKVX NSCLC, in the assay with HCC-2998 colon and in the assay on A549 NSCLC was > 100 µM throughout. The TGI in the assay with HOP-92 NSCLC, with SF-295 CNS and in the assay on 786-0 renal was > 100 µM in each case.
Turning to `O=C1NC(=S)NC(=O)C1=Cc1cc2c(cc1[N+](=O)[O-])OCO2`, the TGI with RXF 393 renal, in the assay on EKVX NSCLC, in the assay on HCC-2998 colon, in the assay on A549 NSCLC and with 786-0 renal was > 100 µM in each case.
On to `CCCN(CCCCC(NC(C)=O)C(=O)NCc1ccccc1)C(=O)NCCCl` (centres undefined), for which the TGI in the assay on RXF 393 renal, with EKVX NSCLC, with HCC-2998 colon, with A549 NSCLC, in the assay on HOP-92 NSCLC and with SF-295 CNS was > 100 µM in each case. The TGI in the assay on 786-0 renal is > 100 µM.
As to `CCCCCCCCCCC/C(=N/O)c1ccc(O)c2ncccc12`, the TGI in the assay with OVCAR-5 ovarian came to 6.66 µM; in the assay with LOX IMVI melanoma, 13.6 µM; in the assay on RXF 393 renal it was 27.6 µM; in the assay with EKVX NSCLC it was 20.1 µM; in the assay with HCC-2998 colon, 23.1 µM; with A549 NSCLC, 35.8 µM. The results for the TGI in the assay with HOP-92 NSCLC, with SF-295 CNS and in the assay on 786-0 renal were 5.47 µM, 6.78 µM and 30.2 µM, respectively.
Take `N#CC(C(=O)/C(=N/N)C(C#N)c1ccc(Cl)cc1)c1ccc(Cl)cc1` (centres undefined): the TGI in the assay with OVCAR-5 ovarian, in the assay on LOX IMVI melanoma, in the assay with RXF 393 renal, in the assay on EKVX NSCLC, with HCC-2998 colon and with A549 NSCLC was > 100 µM each time. The TGI with HOP-92 NSCLC, in the assay on SF-295 CNS and in the assay with 786-0 renal was > 100 µM in each case.
Turning to `CC(C)N(C(=O)C12C3C4C5(C#N)C3C1(I)C5C42I)C(C)C` (centres undefined), the TGI was > 100 µM in the assay with OVCAR-5 ovarian; > 66.1 µM in the assay with LOX IMVI melanoma; > 100 µM in the assay with RXF 393 renal; > 100 µM in the assay on EKVX NSCLC; > 100 µM in the assay on HCC-2998 colon; > 100 µM with A549 NSCLC. For the same compound, the results for the TGI in the assay on HOP-92 NSCLC, in the assay with SF-295 CNS and in the assay with 786-0 renal were > 100 µM, > 100 µM and > 64.7 µM, respectively.
With `CCOc1ccc(N=Cc2cccc3cccnc23)cc1`, the TGI in the assay with OVCAR-5 ovarian, in the assay with RXF 393 renal, with EKVX NSCLC, with HCC-2998 colon, in the assay on A549 NSCLC and in the assay with HOP-92 NSCLC was > 100 µM each time. Moreover, the TGI in the assay on SF-295 CNS and with 786-0 renal was > 100 µM each time.
`O=C1C=C[C@@]23CC1C(O)C[C@H]2C=Cc1ccccc13` (some centres undefined): the TGI in the assay on OVCAR-5 ovarian, in the assay on LOX IMVI melanoma, in the assay with HCC-2998 colon, in the assay with A549 NSCLC, in the assay on HOP-92 NSCLC and in the assay on SF-295 CNS was > 100 µM in each case. For the same compound, in the assay with 786-0 renal, the TGI was > 100 µM.
Take `Cc1c(/C=N/NS(=O)(=O)c2ccccc2)no[n+]1[O-]`: the TGI with OVCAR-5 ovarian, in the assay with RXF 393 renal, in the assay with EKVX NSCLC, in the assay on A549 NSCLC, in the assay on HOP-92 NSCLC and in the assay on SF-295 CNS was > 100 µM in each case. The TGI in the assay on 786-0 renal was > 100 µM.
As to `[Cl][Bi]([O]c1ccccn1)[O]c1ccccn1`, the GI50 in the assay with OVCAR-5 ovarian, in the assay with LOX IMVI melanoma, with RXF 393 renal, in the assay with EKVX NSCLC, in the assay with HCC-2998 colon and in the assay on A549 NSCLC was > 100 µM in each case. The GI50 with SF-295 CNS and in the assay on 786-0 renal was > 100 µM throughout. Besides, the TGI in the assay with OVCAR-5 ovarian, in the assay on LOX IMVI melanoma, with RXF 393 renal, with EKVX NSCLC, in the assay with HCC-2998 colon and with A549 NSCLC was > 100 µM throughout. Also, the TGI in the assay with SF-295 CNS and in the assay with 786-0 renal was > 100 µM throughout.
On to `CC(=O)O[C@H]1C(=O)[C@@]2(C)C(C(OC(=O)c3ccccc3)[C@]3(O)CC(OC(=O)[C@H](OC(=O)CCC(=O)O)C(NC(=O)c4ccccc4)c4ccccc4)C(C)=C1C3(C)C)C1(OC(C)=O)COC1C[C@@H]2OC(=O)CCC(=O)O` (some centres undefined), for which the TGI is > 100 µM in the assay on LOX IMVI melanoma; > 26 µM in the assay with RXF 393 renal; > 100 µM in the assay on EKVX NSCLC; 42.4 µM with HCC-2998 colon; > 100 µM with A549 NSCLC; > 100 µM in the assay on HOP-92 NSCLC. Also, the TGI with 786-0 renal is > 100 µM.
Consider `O=C1c2cccc3cc([N+](=O)[O-])cc(c23)C(=O)N1CCNCCNCCNCCN1C(=O)c2cccc3cc([N+](=O)[O-])cc(c23)C1=O`, for which the TGI in the assay on OVCAR-5 ovarian was 0.326 µM; in the assay with RXF 393 renal, 0.269 µM and 0.169 µM; in the assay with EKVX NSCLC, 0.88 µM; in the assay on HCC-2998 colon it was 0.226 µM; in the assay with A549 NSCLC, 0.287 µM and 0.196 µM; with HOP-92 NSCLC, 0.112 µM. Also, the TGI with SF-295 CNS is 0.422 µM and 0.465 µM; with 786-0 renal, 1.08 µM and 0.612 µM. In the assay with RXF 393 renal, the GI50 is 0.0162 µM.
In the case of `COC(=O)C1CC(C(=O)OC)c2nc3cc(C)ccc3nc21` (centres undefined), the TGI in the assay on OVCAR-5 ovarian, in the assay with LOX IMVI melanoma, with EKVX NSCLC, in the assay with HCC-2998 colon, with A549 NSCLC and with HOP-92 NSCLC was > 100 µM each time. For the same compound, the TGI with SF-295 CNS and in the assay with 786-0 renal was > 100 µM throughout.
Consider `CC(CN(CP(=O)([O-])[O-])CP(=O)([O-])[O-])N(CP(=O)([O-])[O-])CP(=O)([O-])[O-].N.N.[Pt+2]` (centres undefined), for which the GI50 in the assay with OVCAR-5 ovarian, in the assay on LOX IMVI melanoma, in the assay with RXF 393 renal, with EKVX NSCLC, in the assay with HCC-2998 colon and in the assay with A549 NSCLC was > 100 µM in each case. Further, the GI50 in the assay with SF-295 CNS and with 786-0 renal was > 100 µM each time. Also, the TGI in the assay with OVCAR-5 ovarian, with LOX IMVI melanoma, in the assay with RXF 393 renal, in the assay on EKVX NSCLC, in the assay on HCC-2998 colon and in the assay with A549 NSCLC was > 100 µM each time. In addition, the TGI in the assay on SF-295 CNS and in the assay on 786-0 renal was > 100 µM in each case.
On to `Clc1ccc(Cl)c2[s+]snc12`, for which the TGI in the assay with OVCAR-5 ovarian, with LOX IMVI melanoma, in the assay with EKVX NSCLC, with HCC-2998 colon, with A549 NSCLC and with HOP-92 NSCLC was > 100 µM throughout. The values for the TGI in the assay on SF-295 CNS and with 786-0 renal were > 100 µM and > 56.1 µM, respectively.
In the case of `O=S(=O)([O-])c1cccc2cccc(N=Cc3ccccc3[O-])c12.O=S(=O)([O-])c1cccc2cccc(N=Cc3ccccc3[O-])c12.[O]=[U]=[O]`, the GI50 in the assay with OVCAR-5 ovarian was > 100 µM; in the assay with LOX IMVI melanoma, 55.9 µM; with RXF 393 renal it was 10.7 µM; in the assay with EKVX NSCLC, > 100 µM; in the assay with A549 NSCLC it was 44.4 µM; with HOP-92 NSCLC, 30.1 µM. In addition, the GI50 was 67.5 µM in the assay with SF-295 CNS and 33.7 µM with 786-0 renal. For the same compound, the TGI in the assay on OVCAR-5 ovarian is > 100 µM; in the assay on LOX IMVI melanoma it was > 100 µM; in the assay on RXF 393 renal, 25.1 µM; in the assay with EKVX NSCLC, > 100 µM; in the assay on A549 NSCLC, > 100 µM; in the assay on HOP-92 NSCLC, 89.6 µM. In addition, the TGI in the assay on SF-295 CNS and in the assay on 786-0 renal was > 100 µM in each case.
Regarding `CC1OC(n2ncc(=O)[nH]c2=O)C=CC1=O` (centres undefined), the TGI in the assay on OVCAR-5 ovarian is > 100 µM; in the assay on LOX IMVI melanoma, > 100 µM; in the assay with HCC-2998 colon, > 100 µM; in the assay on A549 NSCLC, > 100 µM; with HOP-92 NSCLC, > 100 µM and 71.9 µM; with SF-295 CNS, > 100 µM. Further, in the assay on 786-0 renal, the TGI was > 100 µM. Besides, the GI50 with HOP-92 NSCLC is 71.1 µM and 32.8 µM.
Take `COc1ccc2[nH]c(-c3ccccn3)cc(=O)c2c1`: the TGI in the assay with OVCAR-5 ovarian was > 100 µM; with LOX IMVI melanoma it was > 100 µM; in the assay with RXF 393 renal it was 33.8 µM; in the assay on EKVX NSCLC, > 100 µM; with A549 NSCLC, > 100 µM; in the assay with HOP-92 NSCLC, > 100 µM. Moreover, the TGI in the assay with SF-295 CNS and in the assay with 786-0 renal was > 100 µM in each case. Also, the GI50 is 2.49 µM in the assay with RXF 393 renal and 51.5 µM with SF-295 CNS.
Take `COC(=O)C1=C(C)N(NC(N)=O)C2(N)N(NC(N)=O)C(C)=C(C(=O)OC)C12C(=O)OC` (centres undefined): the TGI in the assay with OVCAR-5 ovarian, in the assay with LOX IMVI melanoma, in the assay on EKVX NSCLC, with HCC-2998 colon, with A549 NSCLC and in the assay on HOP-92 NSCLC was > 100 µM each time. Also, the TGI is > 10 µM in the assay with SF-295 CNS and > 100 µM with 786-0 renal.

The values above are taken from PubChem BioAssay (NCI).
